In US20230278972A1, “SUBSTITUTED HALOALKYL SULFONANILIDE HERBICIDES” (FMC Corporation, priority 2020, published 2023):

What was measured:
Assay type in all cases: in vivo
[1] = system: barnyardgrass (Echinochloa crus-galli); experiment: Test A preemergence, barnyardgrass; details: Preemergence; for Barnyardgrass plant response rating: 125 g ai/ha, visual injury on 0 to 100 scale (0 no effect, 100 complete control), approximately 10 days; for Plant response rating, Barnyardgrass: 500 g ai/ha, 0 to 100 scale (0 no effect, 100 complete control)
How it was run: (§1)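 Seeds are sown in loam mixed with sand and sprayed on the soil surface right after planting for the preemergence test. Postemergence pots are sprayed once seedlings reach 2 to 10 cm at the one- to two-leaf stage. The same surfactant-containing, non-phytotoxic solvent formulation serves both.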

kochia (Bassia scoparia) [2] = experiment: Test A preemergence, kochia; details: Preemergence; for Kochia plant response rating: 125 g ai/ha, visual injury on 0 to 100 scale (0 no effect, 100 complete control), approximately 10 days; for Plant response rating, Kochia: 500 g ai/ha, 0 to 100 scale (0 no effect, 100 complete control)
How it was run: as §1

[3] = system: ragweed (common ragweed, Ambrosia artemisiifolia); experiment: Test A preemergence, ragweed; details: Preemergence; for Ragweed plant response rating: 125 g ai/ha, visual injury on 0 to 100 scale (0 no effect, 100 complete control), approximately 10 days; for Plant response rating, Ragweed: 500 g ai/ha, 0 to 100 scale (0 no effect, 100 complete control)
How it was run: as §1

[4] = system: Ryegrass, Italian (Italian ryegrass, Lolium multiflorum); experiment: Test A preemergence, Ryegrass, Italian; details: Preemergence; for Ryegrass, Italian plant response rating: 125 g ai/ha, visual injury on 0 to 100 scale (0 no effect, 100 complete control), approximately 10 days; for Plant response rating, Ryegrass, Italian: 500 g ai/ha, 0 to 100 scale (0 no effect, 100 complete control)
How it was run: as §1

[5] = system: Foxtail, Giant (giant foxtail, Setaria faberi); experiment: Test A preemergence, Foxtail, Giant; details: Preemergence; for Foxtail, Giant plant response rating: 125 g ai/ha, visual injury on 0 to 100 scale (0 no effect, 100 complete control), approximately 10 days; for Plant response rating, Foxtail, Giant: 500 g ai/ha, 0 to 100 scale (0 no effect, 100 complete control)
How it was run: as §1

[6] = system: pigweed (Amaranthus retroflexus); experiment: Test A preemergence, pigweed; details: for Pigweed plant response rating: 125 g ai/ha, visual injury on 0 to 100 scale (0 no effect, 100 complete control), approximately 10 days; for Plant response rating, Pigweed: 500 g ai/ha, 0 to 100 scale (0 no effect, 100 complete control)
How it was run: (§2)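 Test chemicals, formulated in a non-phytotoxic solvent mixture with surfactant, were sprayed postemergence on plants 2 to 10 cm tall at the one- to two-leaf stage. Preemergence treatment was a directed soil spray onto freshly seeded pots. Both used a loam soil and sand blend.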

[7] = system: barnyardgrass (Echinochloa crus-galli); experiment: Test A postemergence, barnyardgrass; details: Postemergence, 0 to 100 scale (0 no effect, 100 complete control); for Plant response rating, Barnyardgrass: 125 g ai/ha, visual injury approx. 10 days; for Barnyardgrass plant response rating: 500 g ai/ha, visual injury vs untreated controls after approx. 10 days
How it was run: as §2

kochia (Bassia scoparia) [8] = experiment: Test A postemergence, kochia; details: Postemergence, 0 to 100 scale (0 no effect, 100 complete control); for Plant response rating, Kochia: 125 g ai/ha, visual injury approx. 10 days; for Kochia plant response rating: 500 g ai/ha, visual injury vs untreated controls after approx. 10 days
How it was run: as §1

[9] = system: ragweed (common ragweed, Ambrosia artemisiifolia); experiment: Test A postemergence, ragweed; details: Postemergence, 0 to 100 scale (0 no effect, 100 complete control); for Plant response rating, Ragweed: 125 g ai/ha, visual injury approx. 10 days; for Ragweed plant response rating: 500 g ai/ha, visual injury vs untreated controls after approx. 10 days
How it was run: as §1

[10] = system: Ryegrass, Italian (Italian ryegrass, Lolium multiflorum); experiment: Test A postemergence, Ryegrass, Italian; details: Postemergence, 0 to 100 scale (0 no effect, 100 complete control); for Plant response rating, Ryegrass, Italian: 125 g ai/ha, visual injury approx. 10 days; for Ryegrass, Italian plant response rating: 500 g ai/ha, visual injury vs untreated controls after approx. 10 days
How it was run: as §1

[11] = system: Foxtail, Giant (giant foxtail, Setaria faberi); experiment: Test A postemergence, Foxtail, Giant; details: Postemergence, 0 to 100 scale (0 no effect, 100 complete control); for Plant response rating, Foxtail, Giant: 125 g ai/ha, visual injury approx. 10 days; for Foxtail, Giant plant response rating: 500 g ai/ha, visual injury vs untreated controls after approx. 10 days
How it was run: as §1

[12] = system: pigweed (Amaranthus retroflexus); experiment: Test A postemergence, pigweed; details: Postemergence, 0 to 100 scale (0 no effect, 100 complete control); for Plant response rating, Pigweed: 125 g ai/ha, visual injury approx. 10 days; for Pigweed plant response rating: 500 g ai/ha, visual injury vs untreated controls after approx. 10 days
How it was run: as §1

[13] = system: wheat (Triticum aestivum); experiment: Test A postemergence, wheat; details: Postemergence, 0 to 100 scale (0 no effect, 100 complete control); for Plant response rating, Wheat: 125 g ai/ha, visual injury approx. 10 days; for Wheat plant response rating: 500 g ai/ha, visual injury vs untreated controls after approx. 10 days
How it was run: as §2

corn (Zea mays) = experiment: Test A postemergence, corn; details: Postemergence, 0 to 100 scale (0 no effect, 100 complete control); for Plant response rating, Corn: 125 g ai/ha, visual injury approx. 10 days; for Corn plant response rating: 500 g ai/ha, visual injury vs untreated controls after approx. 10 days
How it was run: as §1

[14] = system: blackgrass (Alopecurus myosuroides); experiment: Test A postemergence, blackgrass; details: Postemergence, 0 to 100 scale (0 no effect, 100 complete control); for Plant response rating, Blackgrass: 125 g ai/ha, visual injury approx. 10 days; for Blackgrass plant response rating: 500 g ai/ha, visual injury vs untreated controls after approx. 10 days
How it was run: as §1

[15] = system: galium (catchweed bedstraw, Galium aparine); experiment: Test A postemergence, galium; details: Postemergence, 0 to 100 scale (0 no effect, 100 complete control); for Plant response rating, Galium: 125 g ai/ha, visual injury approx. 10 days; for Galium plant response rating: 500 g ai/ha, visual injury vs untreated controls after approx. 10 days
How it was run: as §2

SMILES	Barnyardgrass plant response rating [1]	Plant response rating, Barnyardgrass [1]	Kochia plant response rating (kochia (Bassia scoparia) [2])	Plant response rating, Kochia (kochia (Bassia scoparia) [2])	Ragweed plant response rating [3]	Plant response rating, Ragweed [3]	Ryegrass, Italian plant response rating [4]	Plant response rating, Ryegrass, Italian [4]	Foxtail, Giant plant response rating [5]	Plant response rating, Foxtail, Giant [5]	Pigweed plant response rating [6]	Plant response rating, Pigweed [6]	Plant response rating, Barnyardgrass [7]	Barnyardgrass plant response rating [7]	Plant response rating, Kochia (kochia (Bassia scoparia) [8])	Kochia plant response rating (kochia (Bassia scoparia) [8])	Plant response rating, Ragweed [9]	Ragweed plant response rating [9]	Plant response rating, Ryegrass, Italian [10]	Ryegrass, Italian plant response rating [10]	also measured
Cc1cc(C)c(C2=NOC3(C2)CC(C)(C)CC(C)(C)C3)cc1NS(=O)(=O)C(F)(F)F [Compound 122]	0	70	70	30	0	0	30	80	50	100	0	30	10	70	0	10	0	0	0	0	Plant response rating, Foxtail, Giant [11]: 0; Foxtail, Giant plant response rating [11]: 20; Plant response rating, Pigweed [12]: 20; Pigweed plant response rating [12]: 50; Plant response rating, Wheat [13]: 0; Wheat plant response rating [13]: 0; Plant response rating, Corn (corn (Zea mays)): 0; Corn plant response rating (corn (Zea mays)): 0; Plant response rating, Blackgrass [14]: 0; Blackgrass plant response rating [14]: 10; Plant response rating, Galium [15]: 60; Galium plant response rating [15]: 90
Cc1cc(C)c(C2=NOC3CCCCC23)cc1NS(=O)(=O)C(F)(F)F (stereo not shown) [Compound 123]	100	100	40	80	50	80	90	100	100	100	90	100	90	90	50	70	50	70	50	50	Plant response rating, Foxtail, Giant [11]: 30; Foxtail, Giant plant response rating [11]: 80; Plant response rating, Pigweed [12]: 60; Pigweed plant response rating [12]: 80; Plant response rating, Wheat [13]: 50; Wheat plant response rating [13]: 60; Plant response rating, Corn (corn (Zea mays)): 10; Corn plant response rating (corn (Zea mays)): 70; Plant response rating, Blackgrass [14]: 20; Blackgrass plant response rating [14]: 50; Plant response rating, Galium [15]: 80; Galium plant response rating [15]: 90
Cc1cc(C#N)c(C(=O)N2CCCCC2)cc1NS(=O)(=O)C(F)(F)F [Compound 126]	0	40	0	30	0	30	0	40	20	90	70	100	0	0	10	30	0	30	0	0	Plant response rating, Foxtail, Giant [11]: 0; Foxtail, Giant plant response rating [11]: 0; Plant response rating, Pigweed [12]: 70; Pigweed plant response rating [12]: 90; Plant response rating, Wheat [13]: 0; Wheat plant response rating [13]: 0; Plant response rating, Corn (corn (Zea mays)): 0; Corn plant response rating (corn (Zea mays)): 20; Plant response rating, Blackgrass [14]: 20; Blackgrass plant response rating [14]: 30; Plant response rating, Galium [15]: 80; Galium plant response rating [15]: 90
Cc1cc(C)c(N(S(=O)(=O)C(F)(F)F)S(=O)(=O)C(F)(F)F)cc1C1=NOC(C(C)(C)C)C1 (stereo not shown) [Compound 127]	50	90	80	80	0	60	60	80	20	90	20	40	0	70	10	40	20	50	40	50	Plant response rating, Foxtail, Giant [11]: 0; Foxtail, Giant plant response rating [11]: 0; Plant response rating, Pigweed [12]: 0; Pigweed plant response rating [12]: 40; Plant response rating, Wheat [13]: 0; Wheat plant response rating [13]: 0; Plant response rating, Corn (corn (Zea mays)): 0; Corn plant response rating (corn (Zea mays)): 20; Plant response rating, Blackgrass [14]: 20; Blackgrass plant response rating [14]: 20; Plant response rating, Galium [15]: 20; Galium plant response rating [15]: 90
Cc1c(NS(=O)(=O)C(F)(F)F)cc(C(=O)N2CCC3(CC2)OCCCO3)c(C)c1F [Compound 129]	100	90	80	90	70	90	80	100	100	100	100	100	20	80	30	50	60	90	0	70	Plant response rating, Foxtail, Giant [11]: 0; Foxtail, Giant plant response rating [11]: 30; Plant response rating, Pigweed [12]: 30; Pigweed plant response rating [12]: 90; Plant response rating, Wheat [13]: 30; Wheat plant response rating [13]: 60; Plant response rating, Corn (corn (Zea mays)): 10; Corn plant response rating (corn (Zea mays)): 20; Plant response rating, Blackgrass [14]: 20; Blackgrass plant response rating [14]: 30; Plant response rating, Galium [15]: 60; Galium plant response rating [15]: 80
